Test results: patent US9227967B2, “Inhibitor compounds of semicarbazide-sensitive amine oxidases” (Proximagen Limited, priority 2010, dated 2016)
Where a name gives a salt, the structure may show the parent alone.

These compounds were tested against T1, human SSAO (Homo sapiens, UniProt Q16853) (assay: SSAO enzyme inhibition assay (benzylamine substrate; HRP-coupled hydrogen peroxide detection or 14C-benzaldehyde detection)). Conditions: purified recombinantly expressed human SSAO, benzylamine as substrate, r.t.; read-out: SSAO inhibitory activity IC50.
T1 construct: made in house
T1 sequence (Q16853 29-763 limits assumed): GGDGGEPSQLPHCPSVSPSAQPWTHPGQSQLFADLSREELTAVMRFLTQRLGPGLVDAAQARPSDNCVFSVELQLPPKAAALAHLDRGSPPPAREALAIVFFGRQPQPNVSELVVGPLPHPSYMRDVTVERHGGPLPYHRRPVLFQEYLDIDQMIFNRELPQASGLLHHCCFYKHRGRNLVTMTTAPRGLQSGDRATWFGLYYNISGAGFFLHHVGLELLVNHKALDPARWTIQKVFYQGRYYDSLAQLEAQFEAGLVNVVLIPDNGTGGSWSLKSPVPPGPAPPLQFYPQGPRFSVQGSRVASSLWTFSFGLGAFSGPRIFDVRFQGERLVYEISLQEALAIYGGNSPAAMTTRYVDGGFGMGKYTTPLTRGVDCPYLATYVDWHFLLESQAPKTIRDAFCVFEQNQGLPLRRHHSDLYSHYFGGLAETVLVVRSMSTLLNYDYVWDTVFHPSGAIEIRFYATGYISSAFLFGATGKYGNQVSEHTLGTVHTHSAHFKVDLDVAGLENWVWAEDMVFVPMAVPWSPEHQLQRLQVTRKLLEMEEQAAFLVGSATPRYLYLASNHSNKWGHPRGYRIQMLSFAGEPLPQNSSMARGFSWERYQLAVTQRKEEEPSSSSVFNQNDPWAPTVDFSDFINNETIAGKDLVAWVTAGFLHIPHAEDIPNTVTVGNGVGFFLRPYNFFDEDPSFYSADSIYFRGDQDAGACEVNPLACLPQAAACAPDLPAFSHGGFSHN
Assay type: biochemical
Description: All primary assays were performed at r.t. with purified recombinantly expressed human SSAO. Enzyme was prepared essentially as described in Öhman et al. (Protein Expression and Purification 46 (2006) 321-331). In addition, secondary- and selectivity assays were performed using SSAO prepared from various tissues or purified rat recombinant SSAO. The enzyme activity was assayed with benzylamine as substrate by measuring either benzaldehyde production, using ^14C-labeled substrate, or by utilizing the production of hydrogen peroxide in a horseradish peroxidise (HRP) coupled reaction. Briefly, test compounds were dissolved in dimethyl sulfoxide (DMSO) to a concentration of 10 mM. Dose-response measurements were assayed by either creating 1:10 serial dilutions in DMSO to produce a 7 point curve or by making 1:3 serial dilutions in DMSO to produce 11 point curves. The top concentrations were adjusted depending on the potency of the compounds and subsequent dilution in reaction buffer yielded a final DMSO concentration ≦2%.
In a horseradish peroxidise (HRP) coupled reaction, hydrogen peroxide oxidation of 10-acetyl-3,7-dihydroxyphenoxazine produced resorufin, which is a highly fluorescent compound (Zhout and Panchuk-Voloshina. Analytical Biochemistry 253 (1997) 169-174; Amplex® Red Hydrogen Peroxide/peroxidise Assay kit, Invitrogen A22188). Enzyme and compounds in 50 mM sodium phosphate, pH 7.4 were set to pre-incubate in flat-bottomed microtiter plates for approximately 15 minutes before initiating the reaction by addition of a mixture of HRP, benzylamine and Amplex reagent. Benzylamine concentration was fixed at a concentration corresponding to the Michaelis constant, determined using standard procedures. Fluorescence intensity was then measured at several time points during 1-2 hours, exciting at 544 nm n and reading the emission at 590 nm. For the human SSAO assay final concentrations of the reagents in the assay wells were: SSAO enzyme 1 μg/ml, benzylamine 100 μM, Amplex reagent 20 μM, HRP 0.1 U/mL and varying concentrations of test compound. The inhibition was measured as % decrease of the signal compared to a control without inhibitor (only diluted DMSO). The background signal from a sample containing no SSAO enzyme was subtracted from all data points. Data was fitted to a four parameter logistic model and IC50 values were calculated using the GraphPad Prism 4 or XLfit 4 programs.
SSAO activity was assayed using 14C-labeled benzylamine and analysed by measuring radioactive benzaldehyde. In a white 96-well optiplate (Packard), 20 μL of diluted test compound was pre-incubated at r.t. with 20 μL SSAO enzyme for approximately 15 minutes with continuous agitation. All dilutions were made with PBS. The reaction was initiated by adding 20 μL of the benzylamine substrate solution containing [7-14C] Benzylamine hydrochloride (CFA589, GE Healthcare). The plate was incubated for 1 hour as above after which the reaction was stopped by acidification (10 μL 1 M HCl). Then 90 μL Micro Scint-E solution (Perkin-Elmer) was added to each well and the plate was continuously mixed for 15 minutes. Phase separation occurred instantly and activity was read in a Topcount scintillation counter (Perkin-Elmer). In the final reaction well, human recombinant SSAO concentration was 10 μg/ml. In order to optimize sensitivity, the substrate concentration was decreased as compared to the HRP coupled assay in order to get a higher fraction of radioactive product. In the human SSAO assay, benzylamine concentration was 40 μM (0.2 μCi/mL). Data was analysed as above.

| SMILES | IC50 [nM] |
| --- | --- |
| Clc1ccc(-n2nc(N3CCNCC3)c3ccncc32)cc1 [Compound 70, 1-[1-(4-Chlorophenyl)-1H-pyrazolo[3,4-c]pyridin-3-yl]piperazine] | 500 to 2500 |
| NC1CCN(c2nn(-c3ccc(Cl)cc3)c3cnccc23)CC1 [Compound 71, 1-[1-(4-Chlorophenyl)-1H-pyrazolo[3,4-c]pyridin-3-yl]piperidin-4-amine] | 100 to 500 |
| Cc1ccc(-n2nc(N3CCOC(CN)C3)c3ccncc32)cc1 (centres unmarked) [Compound 72, {4-[1-(4-Methylphenyl)-1H-pyrazolo[3,4-c]pyridin-3-yl]morpholin-2-yl}methanamine] | 100 to 500 |
| Cc1ccc(-n2nc(N3CCC(O)CC3)c3ccncc32)cc1 [Compound 74, 1-[1-(4-Methylphenyl)-1H-pyrazolo[3,4-c]pyridin-3-yl]piperidin-4-ol] | < 100 |
| Clc1ccc(-n2nc(N3CCN(Cc4cc[nH]n4)CC3)c3ccncc32)cc1 [Compound 75, 1-[1-(4-Chlorophenyl)-1H-pyrazolo[3,4-c]pyridin-3-yl]-4-(1H-pyrazol-3-ylmethyl)piperazine] | 100 to 500 |
| NCCC(=O)N1CCN(c2nn(-c3ccc(Cl)cc3)c3cnccc23)CC1 [Compound 76] | 100 to 500 |
| Cc1ccc(-n2nc(N3CCOCC3C(N)=O)c3ccncc32)cc1 (centres unmarked) [Compound 77, 4-[1-(4-Methylphenyl)-1H-pyrazolo[3,4-c]pyridin-3-yl]morpholine-3-carboxamide] | 500 to 2500 |
| Cc1ccc(-n2nc(N3CCOCC3C(=O)N3CCOCC3)c3ccncc32)cc1 (centres unmarked) [Compound 78, 4-[1-(4-Methylphenyl)-1H-pyrazolo[3,4-c]pyridin-3-yl]-3-[(morpholin-4-yl)carbonyl]morpholine] | 500 to 2500 |
| Cc1ccc(-n2nc(N3CCOCC3C(=O)NCCN)c3ccncc32)cc1 (centres unmarked) [Compound 79, N-(2-Aminoethyl)-4-[1-(4-methylphenyl)-1H-pyrazolo[3,4-c]pyridin-3-yl]morpholine-3-carboxamide dihydrochloride] | 100 to 500 |
| Clc1ccc(-n2nc(C3CCOCC3)c3ccncc32)cc1 [Compound 80, 1-(4-Chlorophenyl)-3-(oxan-4-yl)-1H-pyrazolo[3,4-c]pyridine] | 100 to 500 |
| Cc1ccc(-n2nc(C3CCOC3)c3ccncc32)cc1 (centres unmarked) [Compound 81, 1-(4-Methylphenyl)-3-(oxolan-3-yl)-1H-pyrazolo[3,4-c]pyridine] | 100 to 500 |
| Cc1ccc(-n2nc(C3CCOCC3)c3ccncc32)cc1 [Compound 82, 1-(4-Methylphenyl)-3-(oxan-4-yl)-1H-pyrazolo[3,4-c]pyridine] | 100 to 500 |
| Fc1ccc(-n2nc(C3CCOCC3)c3ccncc32)cc1 [Compound 83, 1-(4-Fluorophenyl)-3-(oxan-4-yl)-1H-pyrazolo[3,4-c]pyridine] | 100 to 500 |
| Clc1ccc(-n2nc(C3CCNCC3)c3ccncc32)cc1 [Compound 84, 4-[1-(4-Chlorophenyl)-1H-pyrazolo[3,4-c]pyridin-3-yl]piperidine] | 100 to 500 |
| Cc1ccc(-n2nc(C3COCCN3)c3ccncc32)cc1 (centres unmarked) [Compound 85, 3-[1-(4-Methylphenyl)-1H-pyrazolo[3,4-c]pyridin-3-yl]morpholine] | 500 to 2500 |
| Cc1ccc(-n2nc(C3CNCCO3)c3ccncc32)cc1 (centres unmarked) [Compound 86, 2-[1-(4-Methylphenyl)-1H-pyrazolo[3,4-c]pyridin-3-yl]morpholine] | 500 to 2500 |
| Cc1ccc(-n2nc(C3CCC(=O)NC3)c3ccncc32)cc1 (centres unmarked) [Compound 87, 5-[1-(4-Methylphenyl)-1H-pyrazolo[3,4-c]pyridin-3-yl]piperidin-2-one] | 100 to 500 |
| Fc1cncc2c1c(C1CCOCC1)nn2-c1ccc(Cl)cc1 [Compound 88, 1-(4-Chlorophenyl)-4-fluoro-3-(oxan-4-yl)-1H-pyrazolo[3,4-c]pyridine] | 500 to 2500 |
| Clc1ccc(-n2nc(C3CCN(Cc4cc[nH]n4)CC3)c3ccncc32)cc1 [Compound 89, 4-[1-(4-Chlorophenyl)-1H-pyrazolo[3,4-c]pyridin-3-yl]-1-(1H-pyrazol-3-ylmethyl)piperidine] | 100 to 500 |
| CCCCN1CCC(c2nn(-c3ccc(Cl)cc3)c3cnccc23)CC1 [Compound 90, 1-Butyl-4-[1-(4-chlorophenyl)-1H-pyrazolo[3,4-c]pyridin-3-yl]piperidine] | 500 to 2500 |
| CN(C)C(=O)N1CCC(c2nn(-c3ccc(Cl)cc3)c3cnccc23)CC1 [Compound 91, 4-[1-(4-Chlorophenyl)-1H-pyrazolo[3,4-c]pyridin-3-yl]-N,N-dimethylpiperidine-1-carboxamide] | 100 to 500 |

Second part, the compound after the results:

| IC50 [nM] | SMILES |
| --- | --- |
| 100 to 500 | CCOC(=O)N1CCC(c2nn(-c3ccc(Cl)cc3)c3cnccc23)CC1 [Compound 92, Ethyl 4-[1-(4-chlorophenyl)-1H-pyrazolo[3,4-c]pyridin-3-yl]piperidine-1-carboxylate] |
| 100 to 500 | NCCC(=O)N1CCC(c2nn(-c3ccc(Cl)cc3)c3cnccc23)CC1 [Compound 93, 3-Amino-1-{4-[1-(4-chlorophenyl)-1H-pyrazolo[3,4-c]pyridin-3-yl]piperidin-1-yl}propan-1-one dihydrochloride] |
| 500 to 2500 | COc1cncc2c1c(C1CCOCC1)nn2-c1ccc(Cl)cc1 [Compound 94, 1-(4-Chlorophenyl)-4-methoxy-3-(oxan-4-yl)-1H-pyrazolo[3,4-c]pyridine] |
| 100 to 500 | Oc1cncc2c1c(C1CCOCC1)nn2-c1ccc(Cl)cc1 [Compound 95, 1-(4-Chlorophenyl)-3-(oxan-4-yl)-1H-pyrazolo[3,4-c]pyridin-4-ol] |
| 500 to 2500 | COc1cc2c(C3CCOCC3)nn(-c3ccc(Cl)cc3)c2cn1 [Compound 96, 1-(4-Chlorophenyl)-5-methoxy-3-(oxan-4-yl)-H-pyrazolo[3,4-c]pyridine] |
| 100 to 500 | Oc1cc2c(C3CCOCC3)nn(-c3ccc(Cl)cc3)c2cn1 [Compound 97, 1-(4-Chlorophenyl)-3-(oxan-4-yl)-1H,5H,6H-pyrazolo[3,4-c]pyridin-5-one] |
| 100 to 500 | Clc1ccc(-n2cc(C3CCOCC3)c3ncncc32)cc1 [Compound 98, 5-(4-Chlorophenyl)-7-(oxan-4-yl)-5H-pyrrolo[3,2-d]pyrimidine] |
| 500 to 2500 | Clc1ccc(-n2nc(C3CCOCC3)c3ncncc32)cc1 [Compound 99, 1-(4-Chlorophenyl)-3-(oxan-4-yl)-1H-pyrazolo[4,3-d]pyrimidine] |
| 100 to 500 | Fc1ccc(-n2cc(C3CCOCC3)c3ccncc32)cc1 [Compound 100, 1-(4-Fluorophenyl)-3-(oxan-4-yl)-1H-pyrrolo[2,3-c]pyridine] |
| < 100 | Clc1ccc(-n2cc(C3CCOCC3)c3ccncc32)cc1 [Compound 101, 1-(4-Chlorophenyl)-3-(oxan-4-yl)-1H-pyrrolo[2,3-c]pyridine] |
| < 100 | Cc1ccc(-n2cc(C3CCOCC3)c3ccncc32)cc1 [Compound 102, 1-(4-Methylphenyl)-3-(oxan-4-yl)-1H-pyrrolo[2,3-c]pyridine] |
